In brackets after ≈: the same amount, converted by molar mass. Where two headings read alike, the source gives them in different places.
Experiments:
[1] = biological target: Isoleucyl-tRNA synthetase (IleRS) (Escherichia coli (strain K12), UniProt P00956); test: Isoleucyl-tRNA synthetase enzyme inhibition (AMP-Glo; single point % inhibition at 100 μM and IC50); assay type: biochemical
Excerpt: Study 1—Enzyme Inhibition
The aminoacylation reaction catalyzed by aminoacyl-tRNA synthetases (aaRS) takes place in two steps. In the first step, aaRS activates its cognate amino acid with ATP; and in the second step the activated amino acid is loaded to its corresponding tRNA. This reaction can be summarized as follows: aaRS+aa+ATP=aaRS-aa-AMP+PPi aaRS-aa-AMP+tRNA=aa-tRNA+AMP+aaRS […]
wherein: aaRS, aminoacyl-tRNA synthetase; aa, amino acid; aaRS-aa-AMP, enzyme-bound to aminoacyl-adenylate; AMP, adenosine monophosphate; aa-tRNA, aminoacyl-tRNA, PPi, inorganic pyrophosphate.
Isoleucyl-tRNA Synthetase a. Single Point Percentage Inhibition
The activity of the pathogenic aaRSs was monitored by measuring AMP production using the commercial kit AMP-Glo (Promega, Madison, USA).
Ligand stock solutions were prepared in 100% DMSO at 10 mM concentration. An assay buffer consisting of 100 mM Tris HCl pH 7.6, 40 mM MgCl, 20 mM KCl and 150 mM NaCl was prepared in dH2O. An enzyme solution containing 51.77 μM IleRS was prepared in assay buffer to provide 30 nM final assay concentration and 75 nM reservoir concentration for a 1:2.5 dilution in the assay. A substrate solution was also prepared in assay buffer with 50 mM L-isoleucine, 10 mM ATP and 100 mg/mL tRNA. A final assay concentration of 500 μM L-isoleucine, 5 μM ATP and 1 mg/mL tRNA and reservoir concentration of 833.33 μM L-isoleucine, 8.33 μM ATP and 1.67 mg/mL tRNA was used for a 1:1.66 dilution in assay.
Enzyme percentage inhibition values were recorded in triplicate at a single point concentration of 100 μM.
Using the same enzymatic assay in a 384-well plate format, ten point concentration response curves were generated for each compound using a top concentration of 100 μM. The known inhibitor, IleAMS was used as a positive control for the IleRS assay. 100% DMSO was used as a negative control. The IC50 was calculated based on non-linear regression analysis.

[2] = test system: bacteria (ATCC reference strains); test: Antibacterial activity, MIC by broth micro-dilution (CLSI)
[3] = Human cell viability / cytotoxicity (CellTiter-Glo, 24 hours); assay type: cell-based; settings: human, HepG2 cells (ATCC HB-8065); HepG2 ATCC HB-8065, 24 hours; read-out: Cytotoxicity in HepG2 ATCC HB-8065 Cell Line, IC50
Description: Study 3—Human Cell Viability
Compounds were assessed for potential non-specific cytotoxic effects against a human hepatic cell line (HepG2 ATCC HB-8065). 96-well plates were seeded with HepG2 cells in concentration of 15,000 cells per well in 100 μL of MEM growth media completed with 1% NEAA and 1% sodium pyruvate. Border wells were filled with 100 μL of sterile PBS. Two days upon cells incubation, the compounds were added. Compound dilutions were prepared in 96-well V-bottom plate in pure DMSO. Growth media from 5 plates were aspirated and replaced with 98.7 μL of fresh growth media. 1.28 μL of compounds prepared in V-bottom plates were transferred with multichannel pipette into test plates (78.1× dilution). Final DMSO concentration was 1.28% per well. In control wells, 1.28 μL of DMSO was added in 98.7 μL of media. Compounds were tested in duplicates. Cells were incubated with compounds for 24 hours when cell viability was assessed by measuring ATP levels. ATP levels were measured by adding 50 μL of CellTiter-Glo reagent to each well and after 5 minutes of incubation luminescence was measured with SpectraMax i3. The potential effect of tested compounds on cell viability was determined by comparing the signal obtained in presence of different concentrations of the compounds with those obtained in the presence of DMSO only. The potential effects were then calculated and presented as IC50 values (μg/mL).

[4] = E. coli IleRS, read-out: Enzyme Inhibition - IC50, E. coli IleRS
[5] = Acinetobacter baumannii, read-out: Antibacterial Activity (MIC), E = A. baumannii B1931
[6] = Enterobacter cloacae, read-out: Antibacterial Activity (MIC), B = Enterobacter cloacae B1966
[7] = Escherichia coli, ATCC25922, read-out: Antibacterial Activity (MIC), A = E. coli ATCC 25922
[8] = Haemophilus influenzae, ATCC49247, read-out: Antibacterial Activity (MIC), F = H. influenzae ATCC 49247
[9] = Klebsiella pneumoniae, ATCC700603, read-out: Antibacterial Activity (MIC), C = K. pneumoniae ATCC 700603
[10] = Pseudomonas aeruginosa, ATCC27853, read-out: Antibacterial Activity (MIC), D = P. aeruginosa ATCC 27853

Chain of Isoleucyl-tRNA synthetase (IleRS) (P00956 whole entry, looked up): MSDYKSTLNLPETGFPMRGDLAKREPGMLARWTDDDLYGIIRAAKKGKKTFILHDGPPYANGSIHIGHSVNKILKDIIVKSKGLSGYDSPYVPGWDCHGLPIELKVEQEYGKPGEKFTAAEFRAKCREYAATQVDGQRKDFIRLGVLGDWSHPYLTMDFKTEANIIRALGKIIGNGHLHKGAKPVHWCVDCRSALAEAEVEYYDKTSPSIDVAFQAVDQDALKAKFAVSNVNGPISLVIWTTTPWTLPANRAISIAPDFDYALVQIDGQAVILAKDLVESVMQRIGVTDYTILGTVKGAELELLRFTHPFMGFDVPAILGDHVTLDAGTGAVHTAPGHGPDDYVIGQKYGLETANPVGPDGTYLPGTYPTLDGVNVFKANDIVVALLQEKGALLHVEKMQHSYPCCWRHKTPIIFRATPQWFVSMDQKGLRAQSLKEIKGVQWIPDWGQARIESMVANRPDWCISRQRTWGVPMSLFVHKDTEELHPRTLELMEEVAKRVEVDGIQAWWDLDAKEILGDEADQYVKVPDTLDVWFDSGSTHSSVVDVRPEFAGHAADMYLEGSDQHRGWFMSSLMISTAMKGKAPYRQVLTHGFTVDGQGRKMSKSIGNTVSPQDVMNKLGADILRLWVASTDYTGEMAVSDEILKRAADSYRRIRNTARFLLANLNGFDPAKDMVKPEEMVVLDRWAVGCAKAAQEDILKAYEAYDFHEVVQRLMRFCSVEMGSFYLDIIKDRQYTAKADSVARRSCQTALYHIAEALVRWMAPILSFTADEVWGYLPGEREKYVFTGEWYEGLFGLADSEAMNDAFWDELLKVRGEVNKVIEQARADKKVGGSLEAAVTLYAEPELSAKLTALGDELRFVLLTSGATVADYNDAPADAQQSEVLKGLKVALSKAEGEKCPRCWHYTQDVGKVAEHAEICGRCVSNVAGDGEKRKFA

SMILES | IC50 [1, 4] [µM] | MIC [2, 5] [µg/mL] | MIC [2, 6] [µg/mL] | MIC [2, 7] [µg/mL] | MIC [2, 8] [µg/mL] | MIC [2, 9] [µg/mL] | MIC [2, 10] [µg/mL] | IC50 at 24 h [3] [µg/mL] | IC50 [1] [µM]
CC[C@H](C)[C@H](N)C(=O)N=[S@](N)(=O)c1cccs1 (single isomer, unassigned) [ANASIA-028-1] | 46.5 | – | – | – | – | – | – | – | –
CC[C@H](C)[C@H](N)C(=O)N=[S@](N)(=O)c1ccc(Cl)s1 [ANASIA-029-1] | 67.4 | – | – | – | – | – | – | – | –
CC[C@H](C)[C@H](N)C(=O)N=[S@@](N)(=O)c1ccc(Cl)s1.Cl [ANASIA-029-2] | 4.59 | > 64 | > 64 | 64 | 16 | > 64 | > 64 | > 64 | –
CC[C@H](C)[C@H](N)C(=O)N=[S@@](N)(=O)c1ccc(C)s1.Cl [ANASIA-031-2] | 2.65 | > 64 | 64 | 64 | 16 | > 64 | > 64 | > 64 | –
CC[C@H](C)[C@H](N)C(=O)N=S(N)(=O)c1ccc(C)s1 (stereo partly drawn) [ANASIA-031] | 6.7 | > 64 | > 64 | > 64 | 64 (≈ 221 µM) | > 64 | > 64 | > 64 | –
CC[C@H](C)[C@H](N)C(=O)N=[S@](N)(=O)c1cccc(-c2ccccc2)c1 [ANASIA-032-1] | 50.8 | – | – | – | – | – | – | – | –
CC[C@H](C)[C@H](N)C(=O)N=[S@](N)(=O)c1cccc(Cl)c1 [ANASIA-033-1] | 67.6 | – | – | – | – | – | – | – | –
CC[C@H](C)[C@H](N)C(=O)N=[S@](N)(=O)c1ccc(C)cc1.Cl [ANASIA-034-1] | – | > 64 | > 64 | > 64 | 64 | > 64 | > 64 | > 64 | 14.7
CC[C@H](C)[C@H](N)C(=O)N=[S@](N)(=O)c1ccc(Cl)cc1 [ANASIA-035-1] | – | – | – | – | – | – | – | > 64 | 18.3
CC[C@H](C)[C@H](N)C(=O)N=[S@@](N)(=O)c1ccc(Cl)cc1.Cl [ANASIA-035-2] | 4.65 | > 64 | > 64 | > 64 | 64 | > 64 | > 64 | > 64 | –
CC[C@H](C)[C@H](N)C(=O)N=[S@](N)(=O)c1ccc(Cl)c(Cl)c1 [ANASIA-036-1] | – | – | – | – | – | – | – | > 64 | 7.86
CC[C@H](C)[C@H](N)C(=O)N=[S@@](N)(=O)c1ccc(Cl)c(Cl)c1 [ANASIA-036-2] | 30.6 | – | – | – | – | – | – | – | –
CC[C@H](C)[C@H](N)C(=O)N=S(N)(=O)c1cc2ccccc2s1 (stereo partly drawn) [ANASIA-037] | 2.74 | > 64 | > 64 | > 64 | 32 (≈ 98.3 µM) | > 64 | > 64 | > 64 | –
CC[C@H](C)[C@H](N)C(=O)N=S(N)(=O)c1ccc(C(F)F)s1 (stereo partly drawn) [ANASIA-038] | 15.8 | > 64 | > 64 | > 64 | 64 (≈ 197 µM) | > 64 | > 64 | > 64 | –
CC[C@H](C)[C@H](N)C(=O)N=[S@](N)(=O)c1cccc(Oc2ccc(Cl)cc2)c1 [ANASIA-052-1] | – | – | – | – | – | – | – | > 64 | 37.7
CC[C@H](C)[C@H](N)C(=O)N=[S@@](N)(=O)c1cccc(Oc2ccc(Cl)cc2)c1 [ANASIA-052-2] | 40.1 | – | – | – | – | – | – | – | –
CC[C@H](C)[C@H](N)C(=O)N=[S@@](N)(=O)c1ccc2c(c1)CCO2 [ANASIA-053-1] | 20.2 | – | – | – | – | – | – | – | –
CC[C@H](C)[C@H](N)C(=O)N=[S@](N)(=O)c1ccc2cccnc2c1 [ANASIA-054-1] | 83.7 | – | – | – | – | – | – | – | –
CC[C@H](C)[C@H](N)C(=O)N=[S@@](N)(=O)c1ccc2cccnc2c1 [ANASIA-054-2] | 19.9 | – | – | – | – | – | – | – | –
CC[C@H](C)[C@H](N)C(=O)N=[S@](N)(=O)c1ccc(OC)cc1 [ANASIA-055-1] | 35.1 | – | – | – | – | – | – | – | –
